Measurements taken from US7385088B1, “Compounds from Antrodia camphorata” (Golden Biotechnology Corporation, priority 2007, dated 2008).
In brackets after ≈: the same amount, converted by molar mass.

How the values were obtained:
Format in all cases: cell-based
MCF-7 = assay: MTT survival assay, breast cancer cells MCF-7; conditions: Homo sapiens, MCF7, estrogen-dependent breast cancer cells, 48 hours
Excerpt: (§1) Therefore Antroquinonol B and Antroquinonol C can be used in inhibiting cancer cell growth of breast cancer, lung cancer, hepatic cancer, and prostate cancer, which can further be applied in cancer treatment of breast cancer, lung cancer, hepatic cancer, prostate cancer and the like. The details of the examples are described as follows: The NCI anti-cancer drug screen model was adopted to test the anti-cancer effect of the isolated compounds from example 1 in the present invention. The isolated Antroquinonol B and Antroquinonol C from example 1 were added into the culture media of human breast-cancer cells, MCF-7 or MDA-MB-231, to test for tumor cell survival. This survival assay was carried out with the widely known MTT (3-[4,5-dimethylthiazol-2-yl]2,5-diphenyltetrazolium bromide) assay. MCF-7 cell line is originated from primary breast cancer cells (early stage), sensitive to estrogen and therefore is estrogen-dependent, while MDA-MB-231 is insensitive to estrogen and therefore is estrogen-independent, which is a difficult tumor with a low survival rate. MTT assay is commonly used to determine cell proliferation, percent of viable cells, and cytotoxicity. […] The plates were read on an ELISA reader at wavelength of 570 nm to determine the survival rates.

MDA-MB-231 = assay: MTT survival assay, breast cancer cells MDA-MB-231; conditions: Homo sapiens, estrogen-independent breast cancer cells, 48 hours
Excerpt: as §1

A549 = assay: MTT survival assay, lung cancer cells A549; conditions: Homo sapiens, 48 hours
Excerpt: Therefore Antroquinonol B and Antroquinonol C can be used in inhibiting cancer cell growth of breast cancer, lung cancer, hepatic cancer, and prostate cancer, which can further be applied in cancer treatment of breast cancer, lung cancer, hepatic cancer, prostate cancer and the like. The details of the examples are described as follows: MTT assay is commonly used to determine cell proliferation, percent of viable cells, and cytotoxicity. 3-[4,5-dimethylthiazol-2-yl]2,5-diphenyltetrazolium bromide (MTT) is a yellow dye, which can be absorbed by the living cells and be reduced to purplish blue formazan crystals by succinate tetrazolium reductase in mitochondria. Formazan formation can therefore be used to assess and determine the survival rate of cells. The NCI anti-cancer drug screen model was also employed to test the anti-lung cancer effect of the Antroquinonol B and Antroquinonol C in the present invention. The Antroquinonols isolated from example 1 were added into the culture media of human lung cancer cell A549 with the abovementioned MTT assay to analyze lung cancer cell survival rates. Human lung cancer cell A549 was obtained from the Bioresources Collection and Research Center (BCRC) of the Food Industry Research and Development Institute with an accession number of BCRC 60074. […] The plates were read on an ELISA reader at wavelength of 570 nm to determine the survival rates.

Hep3B = assay: MTT survival assay, hepatic cancer cells Hep 3B; conditions: Homo sapiens, 48 hours
Excerpt: (§2) Therefore Antroquinonol B and Antroquinonol C can be used in inhibiting cancer cell growth of breast cancer, lung cancer, hepatic cancer, and prostate cancer, which can further be applied in cancer treatment of breast cancer, lung cancer, hepatic cancer, prostate cancer and the like. The details of the examples are described as follows: MTT assay is commonly used to determine cell proliferation, percent of viable cells, and cytotoxicity. 3-[4,5-dimethylthiazol-2-yl]2,5-diphenyltetrazolium bromide (MTT) is a yellow dye, which can be absorbed by the living cells and be reduced to purplish blue formazan crystals by succinate tetrazolium reductase in mitochondria. Formazan formation can therefore be used to assess and determine the survival rate of cells. The NCI anti-cancer drug screen model was employed to test the anti-cancer effect of the Antroquinonol B and Antroquinono C in the present invention. The Antroquinonos isolated from example 1 were added into the culture media of human hepatic-cancer cells, Hep 3B or Hep G2, for tumor cell survival assay. Hepatic-cancer cells Hep 3B (BCRC 60434) and Hep G2 (BCRC 60025), were obtained from the Bioresources Collection and Research Center (BCRC) of the Food Industry Research and Development Institute. […] The plates were read on an ELISA reader at wavelength of 570 nm to determine the survival rates.

HepG2 = assay: MTT survival assay, hepatic cancer cells Hep G2; conditions: Homo sapiens, 48 hours
Excerpt: as §2

LNCaP = assay: MTT survival assay, prostate cancer cells LNCaP; conditions: Homo sapiens, androgen-dependent prostate cancer cells, 48 hours
Excerpt: (§3) Therefore Antroquinonol B and Antroquinonol C can be used in inhibiting cancer cell growth of breast cancer, lung cancer, hepatic cancer, and prostate cancer, which can further be applied in cancer treatment of breast cancer, lung cancer, hepatic cancer, prostate cancer and the like. The details of the examples are described as follows:
(§4) MTT assay is commonly used to determine cell proliferation, percent of viable cells, and cytotoxicity. 3-[4,5-dimethylthiazol-2-yl]2,5-diphenyltetrazolium bromide (MTT) is a yellow dye, which can be absorbed by the living cells and be reduced to purplish blue formazan crystals by succinate tetrazolium reductase in mitochondria. Formazan formation can therefore be used to assess and determine the survival rate of cells.
(§5) The NCI anti-cancer drug screen model was also employed to test the anti-cancer effect of the Antroquinonols in the present invention. Antroquinonol B and Antroquinonol C isolated from example 2 were added into the culture media of human prostate cancer cells, LNCaP or DU-145, and prostate cancer cell survival rates were analyzed with the abovementioned MTT assay. […]
(§6) The human prostate-cancer cells, LNCaP and DU-145, were cultivated in media containing fetal calf serum for 24 hours. […] The plates were read on an ELISA reader at wavelength of 570 nm to determine the survival rates.

DU-145 = assay: MTT survival assay, prostate cancer cells DU-145; conditions: Homo sapiens, androgen-independent prostate cancer cells, 48 hours
Excerpt: as §3, §4, §5, §6

Compound | IC50 (MCF-7) [µg/mL] | IC50 (MDA-MB-231) [µg/mL] | IC50 (A549) [µg/mL] | IC50 (Hep3B) [µg/mL] | IC50 (HepG2) [µg/mL] | IC50 (LNCaP) [µg/mL] | IC50 (DU-145) [µg/mL]
COC1=C(OC)[C@H](O)[C@H](C/C=C(\C)CC/C=C(/C)C/C=C/C(C)(C)O)[C@@H](C)C1=O [Antroquinonol B] | 1.94 (≈ 4.77 µM) | 8.72 (≈ 21.4 µM) | 11.9 (≈ 29.3 µM) | 1.21 (≈ 2.98 µM) | 3.32 (≈ 8.17 µM) | 5.67 (≈ 13.9 µM) | 10.1 (≈ 24.9 µM)
COC1=C(OC)[C@H](O)[C@H](C/C=C(\C)CC/C=C(/C)C/C=C/C(C)(C)OC)[C@@H](C)C1=O [Antroquinonol C] | 1.17 (≈ 2.78 µM) | 21.9 (≈ 52.1 µM) | 8.21 (≈ 19.5 µM) | 1.32 (≈ 3.14 µM) | 5.12 (≈ 12.2 µM) | 8.72 (≈ 20.7 µM) | 12.2 (≈ 29 µM)
